Experimental data as given in PMC6445713 (Molecular cancer research : MCR, 2018).
pIC50: −log10 of the molar value. *1 amine or outer side, *2 acyl side, *3 side chain or, on linkers, in order; H or OH if unused. Where a SMILES comes first, the peptide text is derived from it. Bridges are numbered along the chain shown (N, C = ends). [ ]: non-standard residue; d: D form. The star is where a group is joined. Leu(3R-OH,Nα-propionyl) = CCC(=O)N[C@H](C(=O)*)[C@H](O)C(C)C; X1 = CC(C)[C@@H](O[*:3])[C@H](N[*:1])C(=O)[*:2]; NMeT = CN[C@H](C(=O)O)[C@@H](C)O; dPhLac = O=C(O)[C@H](O)Cc1ccccc1; NMeA = CN[C@@H](C)C(=O)O; NMeDha = C=C(NC)C(=O)O

What was measured:
Gαq [1] = molecular target: Gαq (Rattus norvegicus, UniProt P82471); assay: […]GTPγS filter-binding assay with purified protein preincubated with FR; format: biochemical
Gαq-Q209L (GαqΔ34-Q209L) [2] = molecular target: T1, Gαq-Q209L (GαqΔ34-Q209L) (Mus musculus, UniProt P21279, Q209L); assay: as above; format: biochemical
T1 sequence (P21279 35-359 Q209L): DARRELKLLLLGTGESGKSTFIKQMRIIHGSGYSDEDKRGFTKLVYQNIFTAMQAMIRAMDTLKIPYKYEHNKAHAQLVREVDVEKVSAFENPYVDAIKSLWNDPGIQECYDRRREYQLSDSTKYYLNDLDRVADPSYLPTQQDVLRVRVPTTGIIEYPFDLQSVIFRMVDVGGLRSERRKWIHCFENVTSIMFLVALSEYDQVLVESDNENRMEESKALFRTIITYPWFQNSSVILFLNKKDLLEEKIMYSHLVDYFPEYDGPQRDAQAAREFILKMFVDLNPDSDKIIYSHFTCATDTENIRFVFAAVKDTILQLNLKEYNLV

Gαq [3] = molecular target: T2, Gαq (Rattus norvegicus, UniProt P82471); assay: […]GTPγS radioligand filter binding
T2 sequence (P82471 1-359): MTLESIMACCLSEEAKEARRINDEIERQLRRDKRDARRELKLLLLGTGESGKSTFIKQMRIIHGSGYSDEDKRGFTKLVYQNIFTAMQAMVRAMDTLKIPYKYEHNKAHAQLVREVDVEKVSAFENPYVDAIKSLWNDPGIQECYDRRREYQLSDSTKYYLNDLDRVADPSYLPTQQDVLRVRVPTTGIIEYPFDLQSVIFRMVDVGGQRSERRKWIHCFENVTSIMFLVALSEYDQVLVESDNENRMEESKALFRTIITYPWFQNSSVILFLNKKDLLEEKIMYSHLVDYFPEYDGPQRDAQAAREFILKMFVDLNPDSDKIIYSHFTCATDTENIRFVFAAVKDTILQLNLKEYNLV

Gαq-Q209L (GαqΔ34-Q209L) [4] = molecular target: T1, Gαq-Q209L (GαqΔ34-Q209L); assay: […]GTPγS radioligand filter binding

| Compound | pIC50 (Gαq [1]) | pIC50 (Gαq-Q209L (GαqΔ34-Q209L) [2]) | [35S]GTPγS radioligand filter binding (Gαq [3]) | [35S]GTPγS radioligand filter binding (Gαq-Q209L (GαqΔ34-Q209L) [4]) |
| --- | --- | --- | --- | --- |
| C=C1C(=O)N[C@@H](C)C(=O)N(C)[C@@H](C)C(=O)N[C@@H]([C@H](OC(=O)[C@@H](NC(=O)CC)[C@H](O)C(C)C)C(C)C)C(=O)N(C)[C@@H]([C@@H](C)OC)C(=O)O[C@H](C(C)C)[C@H](NC(C)=O)C(=O)O[C@H](Cc2ccccc2)C(=O)N1C [FR, FR900359] (Ac-[X1][dPhLac][NMeDha]A[NMeA][X1](Leu(3R-OH,Nα-propionyl))[NMeT](Me); ester 1-C) | ~7.12 | ~7.12 | – | – |
| Nc1nc2c(ncn2[C@@H]2O[C@H](COP(=O)(O)OP(=O)(O)OP(O)(O)=S)[C@@H](O)[C@H]2O)c(=O)[nH]1 [GTPγS] | – | – | GTPγS binding of purified Gαq and Gαq-Q209L was measured using a filter-binding method | GTPγS binding of purified Gαq and Gαq-Q209L was measured using a filter-binding method |
